# Source: patent publication US9593108B2, “Compounds and methods for antiviral treatment” (PTC Therapeutics, Inc., priority 2009, dated 2017)
# Assays:
# [1] = test system: HCV replicon RNA (GenBank Accession No. AJ242654); assay: HCV Replicon Assay (replicon RNA reduction and/or Fluc reporter signal); assay type: cell-based, Hepatitis C virus; conditions: Hepatitis C virus, 72 h, replicon-containing cells cultured with test compound for up to 3 days
# How it was run: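 IC50 values mostly reflect the drop in replicon RNA, though Fluc reporter signal may also be used. Compound incubated with cells carrying the bicistronic replicon for as long as 3 days; interferon served as positive control.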
smiles,measurement,setting,value
"Cc1cnc2c(C#N)c(-c3ccc(S(=O)(=O)N[C@@H](C)C(F)(F)F)cn3)n(-c3cscn3)c2c1 [Cpd 468, 6-[3-cyano-6-methyl-1-(1,3-thiazol-4-yl)-1H-pyrrolo[3,2-b]pyridin-2-yl]-N-[(2S)-1,1,1-trifluoropropan-2-yl]pyridine-3-sulfonamide]",IC50,[1],< 500 nM
same,melting point,,244 to 245 °C
"C[C@H](NS(=O)(=O)c1ccc(-c2c(C(N)=O)c3cc(C(F)F)cnc3n2C2CCC2)nc1)C(F)(F)F [Cpd 469, 1-cyclobutyl-5-(difluoromethyl)-2-(5-{[(2S)-1,1,1-trifluoropropan-2-yl]sulfamoyl}pyridin-2-yl)-1H-pyrrolo[2,3-b]pyridine-3-carboxamide]",IC50,[1],< 500 nM
same,melting point,,206 to 208 °C
"C[C@H](NS(=O)(=O)c1cnc(-c2c(C(N)=O)c3cc(C(F)F)cnc3n2C2CCC2)nc1)C(F)(F)F [Cpd 470, 1-cyclobutyl-5-(difluoromethyl)-2-(5-{[(2S)-1,1,1-trifluoropropan-2-yl]sulfamoyl}pyrimidin-2-yl)-1H-pyrrolo[2,3-b]pyridine-3-carboxamide]",IC50,[1],< 500 nM
same,melting point,,199 to 201 °C
"CC(C)(NS(=O)(=O)c1ccc(-c2c(C(N)=O)c3cc(C(F)F)cnc3n2C2CCC2)nc1)C(F)(F)F [Cpd 471, 1-cyclobutyl-5-(difluoromethyl)-2-{5-[(1,1,1-trifluoro-2-methylpropan-2-yl)sulfamoyl]pyridin-2-yl}-1H-pyrrolo[2,3-b]pyridine-3-carboxamide]",IC50,[1],< 500 nM
same,melting point,,205 to 207 °C
"NC(=O)c1c(-c2ccc(S(=O)(=O)NC3(C(F)(F)F)CC3)cn2)n(C2CCC2)c2ncc(C(F)F)cc12 [Cpd 472, 1-cyclobutyl-5-(difluoromethyl)-2-(5-{[1-(trifluoromethyl)cyclopropyl]sulfamoyl}pyridin-2-yl)-1H-pyrrolo[2,3-b]pyridine-3-carboxamide]",IC50,[1],< 500 nM
same,melting point,,210 to 212 °C
"CCc1cnc2c(c1)c(C#N)c(-c1ccc(S(=O)(=O)N[C@@H](C)C(F)(F)F)cn1)n2-c1ncc(F)cn1 [Cpd 473, 6-[3-cyano-5-ethyl-1-(5-fluoropyrimidin-2-yl)-1H-pyrrolo[2,3-b]pyridin-2-yl]-N-[(2S)-1,1,1-trifluoropropan-2-yl]pyridine-3-sulfonamide]",IC50,[1],< 500 nM
same,melting point,,175 to 177 °C
"CCc1cnc2c(c1)c(C#N)c(-c1ccc(S(=O)(=O)N[C@@H](C)C(F)(F)F)cn1)n2-c1ccc(F)cn1 [Cpd 474, 6-[3-cyano-5-ethyl-1-(5-fluoropyridin-2-yl)-1H-pyrrolo[2,3-b]pyridin-2-yl]-N-[(2S)-1,1,1-trifluoropropan-2-yl]pyridine-3-sulfonamide]",IC50,[1],< 500 nM
same,melting point,,175 to 177 °C
"Cc1cnc2c(C#N)c(-c3ccc(S(=O)(=O)N[C@@H](C)C(F)(F)F)cn3)n(-c3ncccn3)c2c1 [Cpd 475, 6-[3-cyano-6-methyl-1-(pyrimidin-2-yl)-1H-pyrrolo[3,2-b]pyridin-2-yl]-N-[(2S)-1,1,1-trifluoropropan-2-yl]pyridine-3-sulfonamide]",IC50,[1],< 500 nM
same,melting point,,226 to 228 °C
"Cc1cnc2c(C#N)c(-c3ccc(S(=O)(=O)N[C@@H](C)C(F)(F)F)cn3)n(-c3ccccc3)c2c1 [Cpd 476, 6-(3-cyano-6-methyl-1-phenyl-1H-pyrrolo[3,2-b]pyridin-2-yl)-N-[(2S)-1,1,1-trifluoropropan-2-yl]pyridine-3-sulfonamide]",IC50,[1],< 500 nM
same,melting point,,245 to 247 °C
"Cc1cnc2c(C#N)c(-c3ccc(S(=O)(=O)N[C@@H](C)C(F)(F)F)cn3)n(-c3nccs3)c2c1 [Cpd 477, 6-[3-cyano-6-methyl-1-(1,3-thiazol-2-yl)-1H-pyrrolo[3,2-b]pyridin-2-yl]-N-[(2S)-1,1,1-trifluoropropan-2-yl]pyridine-3-sulfonamide]",IC50,[1],< 500 nM
same,melting point,,230 to 232 °C
"Cc1cnc2c(C#N)c(-c3ccc(S(=O)(=O)N[C@@H](C)C(F)(F)F)cn3)n(-c3cncs3)c2c1 [Cpd 478, 6-[3-cyano-6-methyl-1-(1,3-thiazol-5-yl)-1H-pyrrolo[3,2-b]pyridin-2-yl]-N-[(2S)-1,1,1-trifluoropropan-2-yl]pyridine-3-sulfonamide]",IC50,[1],500 to 2000 nM
same,melting point,,273 to 275 °C
"Cc1cnc2c(C#N)c(-c3ccc(S(=O)(=O)N[C@@H](C)C(F)(F)F)cn3)n(-c3cc(C(F)(F)F)ccn3)c2c1 [Cpd 479, 6-{3-cyano-6-methyl-1-[4-(trifluoromethyl)pyridin-2-yl]-1H-pyrrolo[3,2-b]pyridin-2-yl}-N-[(2S)-1,1,1-trifluoropropan-2-yl]pyridine-3-sulfonamide]",IC50,[1],500 to 2000 nM
same,melting point,,245 to 246 °C
"Cc1cnc2c(C#N)c(-c3ccc(S(=O)(=O)N[C@@H](C)C(F)(F)F)cn3)n(-c3ccnnc3)c2c1 [Cpd 480, 6-[3-cyano-6-methyl-1-(pyridazin-4-yl)-1H-pyrrolo[3,2-b]pyridin-2-yl]-N-[(2S)-1,1,1-trifluoropropan-2-yl]pyridine-3-sulfonamide]",IC50,[1],2000 to 5000 nM
same,melting point,,283 to 285 °C
"Cc1cnc2c(C#N)c(-c3ccc(S(=O)(=O)N[C@@H](C)C(F)(F)F)cn3)n(-c3ccncn3)c2c1 [Cpd 481, 6-[3-cyano-6-methyl-1-(pyrimidin-4-yl)-1H-pyrrolo[3,2-b]pyridin-2-yl]-N-[(2S)-1,1,1-trifluoropropan-2-yl]pyridine-3-sulfonamide]",IC50,[1],< 500 nM
same,melting point,,265 to 267 °C
"Cc1cnc2c(C#N)c(-c3ccc(S(=O)(=O)N[C@@H](C)C(F)(F)F)cn3)n(-c3ccncc3)c2c1 [Cpd 482, 6-[3-cyano-6-methyl-1-(pyridin-4-yl)-1H-pyrrolo[3,2-b]pyridin-2-yl]-N-[(2S)-1,1,1-trifluoropropan-2-yl]pyridine-3-sulfonamide]",IC50,[1],< 500 nM
same,melting point,,303 to 305 °C
"Cc1cnc2c(c1)c(C#N)c(-c1ccc(S(=O)(=O)N[C@@H](C)C(F)(F)F)cc1)n2C [Cpd 483, 4-(3-cyano-1,5-dimethyl-1H-pyrrolo[2,3-b]pyridin-2-yl)-N-[(2S)-1,1,1-trifluoropropan-2-yl]benzenesulfonamide]",IC50,[1],500 to 2000 nM
same,melting point,,165 to 170 °C
"CCn1c(-c2ccc(S(=O)(=O)N[C@@H](C)C(F)(F)F)cc2)c(C#N)c2cc(C)cnc21 [Cpd 484, 4-(3-cyano-1-ethyl-5-methyl-1H-pyrrolo[2,3-b]pyridin-2-yl)-N-[(2S)-1,1,1-trifluoropropan-2-yl]benzenesulfonamide]",IC50,[1],500 to 2000 nM
same,melting point,,147 to 152 °C
"CCCn1c(-c2ccc(S(=O)(=O)N[C@@H](C)C(F)(F)F)cc2)c(C#N)c2cc(C)cnc21 [Cpd 485, 4-(3-cyano-5-methyl-1-propyl-1H-pyrrolo[2,3-b]pyridin-2-yl)-N-[(2S)-1,1,1-trifluoropropan-2-yl]benzenesulfonamide]",IC50,[1],< 500 nM
same,melting point,,235 to 240 °C
"Cc1cnc2c(c1)c(C#N)c(-c1ccc(S(=O)(=O)N[C@@H](C)C(F)(F)F)cc1)n2C(C)C [Cpd 486, 4-[3-cyano-5-methyl-1-(propan-2-yl)-1H-pyrrolo[2,3-b]pyridin-2-yl]-N-[(2S)-1,1,1-trifluoropropan-2-yl]benzenesulfonamide]",IC50,[1],< 500 nM
same,melting point,,197 to 202 °C
"Cc1cnc2c(c1)c(C#N)c(-c1ccc(S(=O)(=O)N[C@@H](C)C(F)(F)F)cc1)n2CC1CC1 [Cpd 487, 4-[3-cyano-1-(cyclopropylmethyl)-5-methyl-1H-pyrrolo[2,3-b]pyridin-2-yl]-N-[(2S)-1,1,1-trifluoropropan-2-yl]benzenesulfonamide]",IC50,[1],< 500 nM
same,melting point,,175 to 181 °C
"Cc1cnc2c(c1)c(C#N)c(-c1ccc(S(=O)(=O)N[C@@H](C)C(F)(F)F)cc1)n2CC(C)C [Cpd 488, 4-[3-cyano-5-methyl-1-(2-methylpropyl)-1H-pyrrolo[2,3-b]pyridin-2-yl]-N-[(2S)-1,1,1-trifluoropropan-2-yl]benzenesulfonamide]",IC50,[1],< 500 nM
same,melting point,,168 to 176 °C
"Cc1cnc2c(c1)c(C#N)c(-c1ccc(S(=O)(=O)N[C@@H](C)C(F)(F)F)cc1)n2CC1CCC1 [Cpd 489, 4-[3-cyano-1-(cyclobutylmethyl)-5-methyl-1H-pyrrolo[2,3-b]pyridin-2-yl]-N-[(2S)-1,1,1-trifluoropropan-2-yl]benzenesulfonamide]",IC50,[1],< 500 nM
same,melting point,,154 to 158 °C
"Cc1cnc2c(c1)c(C#N)c(-c1ccc(S(=O)(=O)N[C@@H](C)C(F)(F)F)cn1)n2C [Cpd 490, 6-(3-cyano-1,5-dimethyl-1H-pyrrolo[2,3-b]pyridin-2-yl)-N-[(2S)-1,1,1-trifluoropropan-2-yl]pyridine-3-sulfonamide]",IC50,[1],500 to 2000 nM
same,melting point,,182 to 186 °C
"CCn1c(-c2ccc(S(=O)(=O)N[C@@H](C)C(F)(F)F)cn2)c(C#N)c2cc(C)cnc21 [Cpd 491, 6-(3-cyano-1-ethyl-5-methyl-1H-pyrrolo[2,3-b]pyridin-2-yl)-N-[(2S)-1,1,1-trifluoropropan-2-yl]pyridine-3-sulfonamide]",IC50,[1],< 500 nM
same,melting point,,168 to 171 °C
"CCCn1c(-c2ccc(S(=O)(=O)N[C@@H](C)C(F)(F)F)cn2)c(C#N)c2cc(C)cnc21 [Cpd 492, 6-(3-cyano-5-methyl-1-propyl-1H-pyrrolo[2,3-b]pyridin-2-yl)-N-[(2S)-1,1,1-trifluoropropan-2-yl]pyridine-3-sulfonamide]",IC50,[1],< 500 nM
same,melting point,,145 to 149 °C
"Cc1cnc2c(c1)c(C#N)c(-c1ccc(S(=O)(=O)N[C@@H](C)C(F)(F)F)cn1)n2C(C)C [Cpd 493, 6-[3-cyano-5-methyl-1-(propan-2-yl)-1H-pyrrolo[2,3-b]pyridin-2-yl]-N-[(2S)-1,1,1-trifluoropropan-2-yl]pyridine-3-sulfonamide]",IC50,[1],< 500 nM
same,melting point,,157 to 162 °C
